Measured values published in patent US11993599B2, “Therapeutic compounds” (Genentech, Inc., priority 2021, dated 2024).

Columns and labels:
[1] = biological target: T1, BRG1 (Homo sapiens, UniProt P51532); assay: Immunofluorescence assay for BRG1 degradation in SW1573 cells; type: cell-based; settings: 20 hours incubation; for DC50: immunofluorescence mean nuclear signal, read-out: BRG1 IF Degradation IC50; for BRG1 IF Degradation Sinf (%) / Dmax: normalized to a known degrader control; for Dmax: SW1573, 20 h, read-out: BRG1 IF Degradation Sinf (%)
T1 construct: either BRM primary antibody (Cell signaling Cat #11966) or BRG primary antibody (Abcam, ab 110641); endogenous in cells; host or cells: SW1573
T1 sequence (P51532 whole entry): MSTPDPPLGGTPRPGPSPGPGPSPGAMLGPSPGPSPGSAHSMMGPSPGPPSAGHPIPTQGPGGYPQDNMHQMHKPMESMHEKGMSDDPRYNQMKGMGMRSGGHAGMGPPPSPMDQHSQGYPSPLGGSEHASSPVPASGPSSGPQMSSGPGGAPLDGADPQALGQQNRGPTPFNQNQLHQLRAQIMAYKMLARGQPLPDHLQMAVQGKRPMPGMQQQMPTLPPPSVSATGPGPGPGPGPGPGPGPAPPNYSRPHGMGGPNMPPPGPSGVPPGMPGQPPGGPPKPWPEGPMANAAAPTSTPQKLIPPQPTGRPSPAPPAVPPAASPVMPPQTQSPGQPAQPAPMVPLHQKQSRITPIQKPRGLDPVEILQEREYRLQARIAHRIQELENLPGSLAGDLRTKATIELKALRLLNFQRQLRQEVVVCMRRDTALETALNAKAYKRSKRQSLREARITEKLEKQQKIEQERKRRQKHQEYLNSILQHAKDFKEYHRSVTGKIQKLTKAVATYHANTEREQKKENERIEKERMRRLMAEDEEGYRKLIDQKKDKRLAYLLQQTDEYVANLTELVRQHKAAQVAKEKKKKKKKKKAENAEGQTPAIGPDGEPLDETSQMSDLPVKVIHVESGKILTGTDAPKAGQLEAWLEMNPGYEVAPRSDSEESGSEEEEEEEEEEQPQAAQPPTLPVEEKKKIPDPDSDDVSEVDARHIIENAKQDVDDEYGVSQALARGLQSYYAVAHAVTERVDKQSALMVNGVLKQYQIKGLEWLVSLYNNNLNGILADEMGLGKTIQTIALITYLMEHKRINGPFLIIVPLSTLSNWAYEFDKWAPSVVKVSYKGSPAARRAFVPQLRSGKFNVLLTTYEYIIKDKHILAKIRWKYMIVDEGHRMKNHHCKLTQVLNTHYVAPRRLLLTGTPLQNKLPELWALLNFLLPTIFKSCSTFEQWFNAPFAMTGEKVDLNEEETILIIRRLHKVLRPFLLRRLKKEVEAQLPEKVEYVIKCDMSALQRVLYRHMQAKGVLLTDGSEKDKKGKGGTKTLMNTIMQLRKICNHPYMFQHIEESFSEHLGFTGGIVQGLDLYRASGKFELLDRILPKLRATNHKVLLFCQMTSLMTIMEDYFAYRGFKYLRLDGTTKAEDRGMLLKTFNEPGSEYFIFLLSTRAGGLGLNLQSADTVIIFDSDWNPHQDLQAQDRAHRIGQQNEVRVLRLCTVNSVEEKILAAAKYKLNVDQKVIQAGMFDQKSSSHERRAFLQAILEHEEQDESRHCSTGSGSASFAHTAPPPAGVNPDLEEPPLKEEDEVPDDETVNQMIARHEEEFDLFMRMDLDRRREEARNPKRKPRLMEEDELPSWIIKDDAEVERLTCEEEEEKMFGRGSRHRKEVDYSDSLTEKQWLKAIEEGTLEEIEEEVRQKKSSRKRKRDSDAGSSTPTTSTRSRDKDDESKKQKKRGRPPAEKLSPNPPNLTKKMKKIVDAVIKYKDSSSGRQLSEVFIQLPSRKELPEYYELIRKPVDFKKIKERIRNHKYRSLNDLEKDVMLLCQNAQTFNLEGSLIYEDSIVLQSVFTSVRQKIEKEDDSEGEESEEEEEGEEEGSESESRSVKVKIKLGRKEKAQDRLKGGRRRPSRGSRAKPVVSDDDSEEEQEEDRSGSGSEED
Procedure, shortened: (§1)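 Imaging-based readout in SW1573: 20 h dosing, formaldehyde fixation, antibody staining for either remodeler, nuclear intensity per cell quantified. Values normalized to control degrader; floating-maximum fit.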

[2] = biological target: BRM (Homo sapiens, UniProt P51531); assay: Immunofluorescence assay for BRM degradation in SW1573 cells; type: cell-based; parameters: treated overnight at 4° C. with either BRM primary antibody (Cell signaling Cat #11966) or BRG primary antibody; endogenous in cells; host or cells: SW1573; settings: 20 hours incubation; for DC50: immunofluorescence mean nuclear signal, read-out: BRM IF Degradation IC50; for BRM IF Degradation Sinf (%): normalized to a known degrader control
BRM, sequence (P51531 whole entry): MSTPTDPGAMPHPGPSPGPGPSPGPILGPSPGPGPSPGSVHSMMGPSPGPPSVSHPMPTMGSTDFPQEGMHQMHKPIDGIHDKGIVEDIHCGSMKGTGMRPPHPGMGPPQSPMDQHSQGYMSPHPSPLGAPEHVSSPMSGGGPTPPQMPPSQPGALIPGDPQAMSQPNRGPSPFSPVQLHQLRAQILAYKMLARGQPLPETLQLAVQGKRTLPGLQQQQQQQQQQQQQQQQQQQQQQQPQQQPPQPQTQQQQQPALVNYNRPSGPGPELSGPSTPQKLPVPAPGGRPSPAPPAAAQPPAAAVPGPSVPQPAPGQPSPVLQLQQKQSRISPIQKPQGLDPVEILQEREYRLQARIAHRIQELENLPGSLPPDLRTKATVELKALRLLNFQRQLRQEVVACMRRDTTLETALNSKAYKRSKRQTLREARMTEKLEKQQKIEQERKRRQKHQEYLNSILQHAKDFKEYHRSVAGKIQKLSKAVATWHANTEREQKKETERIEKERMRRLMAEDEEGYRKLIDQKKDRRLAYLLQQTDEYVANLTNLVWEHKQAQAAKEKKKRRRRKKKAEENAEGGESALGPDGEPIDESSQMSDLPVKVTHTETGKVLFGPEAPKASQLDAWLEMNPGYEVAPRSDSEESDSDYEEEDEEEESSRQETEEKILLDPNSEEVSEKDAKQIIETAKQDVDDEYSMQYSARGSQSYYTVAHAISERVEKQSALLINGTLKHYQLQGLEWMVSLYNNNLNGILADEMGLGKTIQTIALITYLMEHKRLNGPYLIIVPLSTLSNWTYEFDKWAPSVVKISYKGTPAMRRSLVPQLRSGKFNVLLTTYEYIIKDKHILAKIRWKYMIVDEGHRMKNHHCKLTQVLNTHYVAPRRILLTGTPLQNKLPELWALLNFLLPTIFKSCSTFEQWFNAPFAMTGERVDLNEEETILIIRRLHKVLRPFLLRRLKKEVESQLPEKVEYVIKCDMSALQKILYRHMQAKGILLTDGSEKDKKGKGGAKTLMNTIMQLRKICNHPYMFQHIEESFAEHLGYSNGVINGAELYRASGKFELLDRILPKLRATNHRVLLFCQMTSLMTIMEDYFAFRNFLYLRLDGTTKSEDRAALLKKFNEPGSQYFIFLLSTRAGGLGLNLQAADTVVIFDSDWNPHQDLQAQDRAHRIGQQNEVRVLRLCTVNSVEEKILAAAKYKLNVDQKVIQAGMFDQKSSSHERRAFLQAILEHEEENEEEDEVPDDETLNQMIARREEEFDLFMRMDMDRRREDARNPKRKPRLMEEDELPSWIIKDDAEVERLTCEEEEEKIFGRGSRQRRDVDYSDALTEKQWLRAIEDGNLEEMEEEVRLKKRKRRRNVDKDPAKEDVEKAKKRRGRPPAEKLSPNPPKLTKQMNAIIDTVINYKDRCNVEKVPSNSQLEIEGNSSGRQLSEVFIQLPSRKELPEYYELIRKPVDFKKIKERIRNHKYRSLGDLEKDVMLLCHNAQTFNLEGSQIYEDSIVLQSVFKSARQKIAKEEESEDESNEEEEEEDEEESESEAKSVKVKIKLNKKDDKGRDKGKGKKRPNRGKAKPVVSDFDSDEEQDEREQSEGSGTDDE
Procedure, shortened: as §1

Nc1nnc(-c2ccccc2O)cc1N1CC2CCC(C1)N2c1ccnc(C#CCN2CCC23CCOC3)c1 (centres unmarked) [Compound 167, 2-[6-amino-5-[8-[2-[3-(7-oxa-1-azaspiro[3.4]octan-1-yl)prop-1-ynyl]-4-pyridyl]-3,8-diazabicyclo[3.2.1]octan-3-yl]pyridazin-3-yl]phenol]
DC50 [1]: < 10 nM | BRG1 IF Degradation Sinf (%) [1]: F (F indicates −71%-−120%) | DC50 [2]: < 10 nM | BRM IF Degradation Sinf (%) [2]: F (F indicates −71%-−120%)

Nc1nnc(-c2ccccc2O)cc1N1CC2CCC(C1)N2c1ccnc(C#CCN2CC(O)C2)c1 [Compound 168, 1-[3-[4-[3-[3-amino-6-(2-hydroxyphenyl)pyridazin-4-yl]-3,8-diazabicyclo[3.2.1]octan-8-yl]-2-pyridyl]prop-2-ynyl]azetidin-3-ol]
DC50 [1]: 10 to 100 nM | BRG1 IF Degradation Sinf (%) [1]: E (E indicates −30%-−70%) | DC50 [2]: 10 to 100 nM | BRM IF Degradation Sinf (%) [2]: F (F indicates −71%-−120%)

COC1(C)CN(CC#Cc2cc(N3C4CCC3CN(c3cc(-c5ccccc5O)nnc3N)C4)ccn2)C1 [Compound 169, 2-[6-amino-5-[8-[2-[3-(3-methoxy-3-methyl-azetidin-1-yl)prop-1-ynyl]-4-pyridyl]-3,8-diazabicyclo[3.2.1]octan-3-yl]pyridazin-3-yl]phenol]
DC50 [1]: 10 to 100 nM | Dmax [1]: 30 to 70% | DC50 [2]: < 10 nM | BRM IF Degradation Sinf (%) [2]: E (E indicates −30%-−70%)

CC1(CO)CN(CC#Cc2cc(N3C4CCC3CN(c3cc(-c5ccccc5O)nnc3N)C4)ccn2)C1 [Compound 170, 2-[6-amino-5-[8-[2-[3-[3-(hydroxymethyl)-3-methyl-azetidin-1-yl]prop-1-ynyl]-4-pyridyl]-3,8-diazabicyclo[3.2.1]octan-3-yl]pyridazin-3-yl]phenol]
DC50 [1]: > 100 nM | Dmax [1]: 30 to 70% | DC50 [2]: 10 to 100 nM | BRM IF Degradation Sinf (%) [2]: E (E indicates −30%-−70%)

Nc1nnc(-c2ccccc2O)cc1N1CC2CCC(C1)N2c1ccnc(C#CCN2CC(F)(CO)C2)c1 [Compound 171, 2-[6-amino-5-[8-[2-[3-[3-fluoro-3-(hydroxymethyl)azetidin-1-yl]prop-1-ynyl]-4-pyridyl]-3,8-diazabicyclo[3.2.1]octan-3-yl]pyridazin-3-yl]phenol]
DC50 [1]: > 100 nM | DC50 [2]: > 100 nM | BRM IF Degradation Sinf (%) [2]: E (E indicates −30%-−70%)

CC1CN(CC#Cc2cc(N3C4CCC3CN(c3cc(-c5ccccc5O)nnc3N)C4)ccn2)C1 [Compound 172, 2-[6-amino-5-[8-[2-[3-(3-methylazetidin-1-yl)prop-1-ynyl]-4-pyridyl]-3,8-diazabicyclo[3.2.1]octan-3-yl]pyridazin-3-yl]phenol]
DC50 [1]: 10 to 100 nM | Dmax [1]: 71 to 120% | DC50 [2]: < 10 nM | BRM IF Degradation Sinf (%) [2]: E (E indicates −30%-−70%)

CC1(F)CN(CC#Cc2cc(N3C4CCC3CN(c3cc(-c5ccccc5O)nnc3N)C4)ccn2)C1 [Compound 173, 2-[6-amino-5-[8-[2-[3-(3-fluoro-3-methyl-azetidin-1-yl)prop-1-ynyl]-4-pyridyl]-3,8-diazabicyclo[3.2.1]octan-3-yl]pyridazin-3-yl]phenol]
DC50 [1]: 10 to 100 nM | Dmax [1]: 30 to 70% | DC50 [2]: 10 to 100 nM | BRM IF Degradation Sinf (%) [2]: F (F indicates −71%-−120%)

COC1CN(CC#Cc2cc(N3C4CCC3CN(c3cc(-c5ccccc5O)nnc3N)C4)ccn2)C1 [Compound 174, 2-[6-amino-5-[8-[2-[3-(3-methoxyazetidin-1-yl)prop-1-ynyl]-4-pyridyl]-3,8-diazabicyclo[3.2.1]octan-3-yl]pyridazin-3-yl]phenol]
DC50 [1]: 10 to 100 nM | Dmax [1]: 30 to 70% | DC50 [2]: 10 to 100 nM | BRM IF Degradation Sinf (%) [2]: F (F indicates −71%-−120%)

Nc1nnc(-c2ccccc2O)cc1N1CC2CCC(C1)N2c1ccnc(C#CCN2CC3(CCCOC3)C2)c1 [Compound 175, 2-[6-amino-5-[8-[2-[3-(6-oxa-2-azaspiro[3.5]nonan-2-yl)prop-1-ynyl]-4-pyridyl]-3,8-diazabicyclo[3.2.1]octan-3-yl]pyridazin-3-yl]phenol]
DC50 [1]: < 10 nM | Dmax [1]: 30 to 70% | DC50 [2]: < 10 nM | BRM IF Degradation Sinf (%) [2]: E (E indicates −30%-−70%)
